13 molecules from patent US9126941B2, “Treatment of hyperproliferative disorders with diarylhydantoin compounds” (The Regents of the University of California, priority 2005, dated 2015) can be followed below.

pIC50: −log10 of the molar value. Like-named read-outs stand apart in the source and are kept apart here.

Holding throughout (assay): cell-based
For test [1], the target named is T1, AR (Homo sapiens, UniProt P10275). The test is classed as cell-based. The following applies: for IC50 (nM) Reporter / Inhibitory activity on AR in reporter system: LNCaP-AR; for IC50 (nM) Reporter: 100 pM R1881, two days, No = did not inhibit AR response reporter; for Inhibitory activity on AR in reporter system: hormone refractory. The protocol:
The compounds were subjected to tests using an artificial AR response reporter system in a hormone refractory prostate cancer cell line. […] After two days of incubation, reporter activities were assayed.

Test [2] addresses T1, AR. The test is classed as cell-based. Conditions: for Rank order, most active to least active, relative PSA level (FIG. 4): 500 nM; for Decrease in PSA level of LNCaP-AR cells, comparison (FIG. 4): at concentrations of 1000 nM. The procedure: It is well established that PSA levels are indicators of AR activities in prostate cancer. […] The LNCaP-AR cells are a line of lymph node carcinoma of prostate cells transduced with a plasmid that makes express androgen receptors. […] After four days incubation, secreted PSA levels were assayed using PSA ELISA kits (American Qualex, San Clemente, Calif.)

The target of test [3] is T1, AR. Conditions: for Agonistic activity on AR, reporter: LN-AR, absence of R1881; for fold induction at 0.1 µM: read-out: Fold induction of AR response reporter, 0.1 μM; for fold induction at 1 µM: read-out: Fold induction of AR response reporter, 1 μM; for fold induction at 10 µM: read-out: Fold induction of AR response reporter, 10 μM. The source says: Table 2 lists the agonistic activities of different compounds.

Test [4] addresses T1, AR. Type of test: cell-based. The following applies: for Agonistic activity, secreted PSA: AR over expressed LNCaP, absence of R1881; for fold induction at 0.1 µM / fold induction at 1 µM / fold induction at 10 µM: LNCaP; for fold induction at 0.1 µM: read-out: Fold induction of endogenous PSA, 0.1 μM; for fold induction at 1 µM: read-out: Fold induction of endogenous PSA, 1 μM; for fold induction at 10 µM: read-out: Fold induction of endogenous PSA, 10 μM.

T1 sequence (P10275 whole entry, looked up): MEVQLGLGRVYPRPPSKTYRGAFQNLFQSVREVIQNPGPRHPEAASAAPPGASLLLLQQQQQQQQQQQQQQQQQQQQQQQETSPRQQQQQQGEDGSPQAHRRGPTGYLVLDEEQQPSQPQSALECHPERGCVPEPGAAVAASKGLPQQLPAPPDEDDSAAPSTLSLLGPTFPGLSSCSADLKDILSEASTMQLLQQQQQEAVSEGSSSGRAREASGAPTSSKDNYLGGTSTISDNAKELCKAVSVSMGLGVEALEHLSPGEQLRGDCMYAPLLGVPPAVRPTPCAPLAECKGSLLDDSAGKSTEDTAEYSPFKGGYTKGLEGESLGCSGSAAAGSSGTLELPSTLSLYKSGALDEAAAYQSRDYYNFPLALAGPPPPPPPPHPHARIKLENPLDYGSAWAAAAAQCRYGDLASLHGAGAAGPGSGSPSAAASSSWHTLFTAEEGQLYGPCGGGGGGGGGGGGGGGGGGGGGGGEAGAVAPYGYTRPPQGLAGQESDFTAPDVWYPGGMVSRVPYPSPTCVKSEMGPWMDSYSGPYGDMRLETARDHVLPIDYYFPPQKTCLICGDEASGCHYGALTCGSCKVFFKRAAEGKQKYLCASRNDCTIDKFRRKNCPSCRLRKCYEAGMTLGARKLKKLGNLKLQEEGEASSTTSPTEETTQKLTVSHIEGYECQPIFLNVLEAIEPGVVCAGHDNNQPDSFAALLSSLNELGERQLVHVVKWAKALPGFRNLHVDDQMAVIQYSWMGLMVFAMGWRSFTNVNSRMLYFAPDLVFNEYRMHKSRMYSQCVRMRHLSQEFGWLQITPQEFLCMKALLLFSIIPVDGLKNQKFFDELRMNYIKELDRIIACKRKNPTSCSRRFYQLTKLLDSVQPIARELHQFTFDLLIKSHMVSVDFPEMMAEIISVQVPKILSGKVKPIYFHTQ

Regarding `Cc1ccc(N2C(=S)N(c3ccc(C#N)c(C(F)(F)F)c3)C(=O)C2(CCl)CCl)cc1` [RD67, 4-(4,4-bischloromethyl-5-oxo-2-thioxo-3-(4-methylphenyl)imidazolidin-1-yl)-2-trifluoromethylbenzonitrile], the pIC50 at AR [1] is 6.28; against AR [2], below 6.30.

For the molecule `Cc1ccc(N2C(=S)N(c3ccc(C#N)c(C(F)(F)F)c3)C(=O)C2(C)CF)cc1` (centres unmarked) [RD68, 4-(4-fluoromethyl-4-methyl-5-oxo-2-thioxo-3-(4-methylphenyl)imidazolidin-1-yl)-2-trifluoromethylbenzonitrile], the pIC50 against AR [1] was 6.90; on AR [2], 6.89.

`CN1C(=O)N(c2ccc(C#N)c(C(F)(F)F)c2)C(=O)C12CCCC2` [RD76, 4-(1-methyl-2,4-dioxo-1,3-diaza-spiro[4.4]non-3-yl)-2-trifluoromethylbenzonitrile]: at AR [1], the “IC50 (nM) Reporter” value is recorded as “No” and the “Inhibitory activity on AR in reporter system” value is “no inhibitory activities”. The “IC50 (nM) PSA” value against AR [2] was “No”. Besides, on AR [3], the “Agonistic activity on AR, reporter” value is listed as “strongly activated AR”; the fold induction at 0.1 µM was 12; the fold induction at 1 µM stood at 19.8; the fold induction at 10 µM was 39.

For `N#Cc1ccc(N2C(=O)C3(CCCC3)NC2=S)cc1C(F)(F)F` [RD77, 4-(4-oxo-2-thioxo-1,3-diazaspiro[4.4]non-3-yl)-2-trifluoromethylbenzonitrile], at AR [1], the “IC50 (nM) Reporter” value is reported as “No” and the “Inhibitory activity on AR in reporter system” value was “no inhibitory activities”. Also, the “IC50 (nM) PSA” value at AR [2] is listed as “No”. Further, at AR [3], the “Agonistic activity on AR, reporter” value is “strongly activated AR”; the fold induction at 0.1 µM was 14.9; the fold induction at 1 µM stood at 22.5; the fold induction at 10 µM was determined as 37.1.

For `CCNC(=S)N=C1N(c2ccc(C#N)c(C(F)(F)F)c2)C(=S)N(c2ccc(C)cc2)C1(C)C` [RD91, 1-[3-(4-cyano-3-trifluoromethyl-phenyl)-5,5-dimethyl-2-thioxo-1-p-tolyl-imidazolidin-4-ylidene]-3-ethyl-thiourea], at AR [3], the “Agonistic activity on AR, reporter” value is listed as “no agonistic activity”; the fold induction at 0.1 µM was found to be 1.3; the fold induction at 1 µM is 1.18; the fold induction at 10 µM worked out at 1.28. In addition, on AR [4], the “Agonistic activity, secreted PSA” value is “no agonistic activities”; the fold induction at 0.1 µM is 1.06; the fold induction at 1 µM was 1.3; the fold induction at 10 µM turned out to be 0.85.

Turning to `Cc1ccc(N2C(=S)N(c3ccc(C#N)c(C(F)(F)F)c3)C(=NC(=S)Nc3ccccc3)C23CCC3)cc1` [RD92, 1-[7-(4-cyano-3-trifluoromethyl-phenyl)-6-thioxo-5-p-tolyl-5,7-diaza-spiro[3.4]oct-8-ylidine]-3-phenyl-thiourea], on AR [3], the “Agonistic activity on AR, reporter” value was “no agonistic activity”; the fold induction at 0.1 µM was found to be 1.19; the fold induction at 1 µM is 1.41; the fold induction at 10 µM amounted to 1.17. Further, at AR [4], the “Agonistic activity, secreted PSA” value is on record as “no agonistic activities”; the fold induction at 0.1 µM was determined as 1.31; the fold induction at 1 µM stood at 1.05; the fold induction at 10 µM stood at 0.9.

For `Cc1ccc(N2C(=S)N(c3ccc(C#N)c(C(F)(F)F)c3)C(=NC(=S)Nc3ccc(C#N)c(C(F)(F)F)c3)C23CCC3)cc1` [RD93, 1-(4-Cyano-3-trifluoromethyl-phenyl)-3-[7-(4-cyano-3-trifluoromethyl-phenyl)-6-thioxo-5-p-tolyl-5,7-diaza-spiro[3.4]oct-8-ylidene]-thiourea], on AR [3], the “Agonistic activity on AR, reporter” value was “no agonistic activity”; the fold induction at 0.1 µM was determined as 1.26; the fold induction at 1 µM amounted to 1.1; the fold induction at 10 µM was determined as 1.3. In addition, on AR [4], the “Agonistic activity, secreted PSA” value was “no agonistic activities”; the fold induction at 0.1 µM is 1.44; the fold induction at 1 µM was 1.3; the fold induction at 10 µM amounted to 1.05.

In turn, `N#Cc1ccc(N2C(=O)C3(CCC3)N(c3ccc(CCCC(N)=O)cc3)C2=S)cc1C(F)(F)F` [RD130, 4-{4-[7-(4-Cyano-3-trifluoromethylphenyl)-8-oxo-6-thioxo-5,7-diaza-spiro[3.4]oct-5-yl]-phenyl}-butyramide] showed a pIC50 on AR [1] of 6.95. Further, the “PSA level, LN/AR cell line, comparison” value on AR [2] (for a given dose / concentration) was “less than the PSA level upon exposure to RD128 and RD129”.

In turn, `N#Cc1ccc(N2C(=O)C3(CCC3)N(c3ccc(CCC(N)=O)cc3)C2=S)cc1C(F)(F)F` [RD133, 3-{4-[7-(4-cyano-3-trifluoromethylphenyl)-8-oxo-6-thioxo-5,7-diaza-spiro[3.4]oct-5-yl]-phenyl}-propionamide] gave a pIC50 on AR [1] of 6.65. At AR [2], the “Rank order, most active to least active, relative PSA level (FIG. 4)” value (“Rank order … relative PSA level (FIG. 4)” for short) is given as “RD138>RD131>RD37>RD133>RD134>RD137>RD138>RD135>bicalutamide”; the “Decrease in PSA level of LNCaP-AR cells, comparison (FIG. 4)” value (shortened to “Decrease in PSA level of LNCaP-AR cells”) is “greater decrease in PSA level of LNCaP-AR cells than RD135 and RD137”.

Consider `CNC(=O)CCc1ccc(N2C(=S)N(c3ccc(C#N)c(C(F)(F)F)c3)C(=O)C23CCC3)cc1` [RD134, 3-{4-[7-(4-Cyano-3-trifluoromethylphenyl)-8-oxo-6-thioxo-5,7-diaza-spiro[3.4]oct-5-yl]-phenyl}-N-methyl-propionamide], for which the pIC50 against AR [1] was 6.63. Besides, on AR [2], the “Rank order … relative PSA level (FIG. 4)” value is “RD138>RD131>RD37>RD133>RD134>RD137>RD138>RD135>bicalutamide”; the “Decrease in PSA level of LNCaP-AR cells” value is “greater decrease in PSA level of LNCaP-AR cells than RD135 and RD137”.

Consider `N#Cc1ccc(N2C(=O)C3(CCC3)N(c3ccc(CCC(=O)NCCO)cc3)C2=S)cc1C(F)(F)F` [RD135, 3-{4-[7-(4-cyano-3-trifluoromethylphenyl)-8-oxo-6-thioxo-5,7-diaza-spiro[3.4]oct-5-yl]-phenyl}-N-(2-hydroxyethyl)-propionamide], for which, at AR [1], the negative-log IC50 (pIC50) is 6.14. Moreover, on AR [2], the “Rank order … relative PSA level (FIG. 4)” value was “RD138>RD131>RD37>RD133>RD134>RD137>RD138>RD135>bicalutamide” and the “Decrease in PSA level of LNCaP-AR cells” value is recorded as “greater decrease in PSA level than bicalutamide”.

For the molecule `N#Cc1ccc(N2C(=O)C3(CCC3)N(c3ccc(N4CCNCC4)cc3)C2=S)cc1C(F)(F)F` [RD137, 4-[8-Oxo-5-(4-piperazin-1-yl-phenyl)-6-thioxo-5,7-diazaspiro[3,4]oct-7-yl]-2-trifluoromethylbenzonitrile], the pIC50 at AR [1] is 6.14. Besides, on AR [2], the “Rank order … relative PSA level (FIG. 4)” value is reported as “RD138>RD131>RD37>RD133>RD134>RD137>RD138>RD135>bicalutamide” and the “Decrease in PSA level of LNCaP-AR cells” value is reported as “greater decrease in PSA level than bicalutamide”.

On AR [1], `CS(=O)(=O)N1CCN(c2ccc(N3C(=S)N(c4ccc(C#N)c(C(F)(F)F)c4)C(=O)C34CCC4)cc2)CC1` [RD138, 4-{5-[4-(4-methanesulfonylpiperazin-1-yl)-phenyl]-8-oxo-6-thioxo-5,7-diazaspiro[3.4]oct-7-yl}-2-trifluoromethylbenzonitrile] had a pIC50 of 6.86. On AR [2], the “Rank order … relative PSA level (FIG. 4)” value is on record as “RD138>RD131>RD37>RD133>RD134>RD137>RD138>RD135>bicalutamide”; the “Decrease in PSA level of LNCaP-AR cells” value was “greater decrease in PSA level of LNCaP-AR cells than RD135 and RD137”.

As usually defined, the pIC50 is the IC50 on a negative log10 scale, so that one unit is a factor of ten. High values mean a low IC50, low ones a high IC50.
